# Experimental data taken from paper PMC7407272, “Induction of Lysosome Membrane Permeabilization as a Therapeutic Strategy to Target Pancreatic Cancer Stem Cells” (Cancers, 2020).
# Columns and labels:
# [1] = test system: PDAC1 adherent 2D monolayers; assay: Viability curves on PDAC1 adherent 2D monolayers; type: cell-based; conditions: Homo sapiens, 30 h
# Text: The PDAC patient-derived xenograft (PDX) Panc354 (referred to hereafter as PDAC3) was obtained from Dr. Manuel Hidalgo under a Material Transfer Agreement with the Spanish National Cancer Centre (CNIO), Madrid, Spain (Reference no. I409181220BSMH). PDAC1, PDAC2 and PDAC4 PDXs were established from primary patient resected tumors. Samples were provided by the BioBank Hospital Ramón y Cajal-IRYCIS (PT13/0010/0002), integrated in the Spanish National Biobanks Network and they were processed following standard operating procedures with the appropriate approval of the Ethical and Scientific Committees (Control no. No. Control: DE-BIOB-73 AC65, RG.BIOB-96 REV, and CI-BIOB-08-10-01 rev), with informed consent and according to Declaration of Helsinki principles. Primary patient tumors were subcutaneously implanted in immunocompromised female 6- to 8-week-old NU-Foxn1nu nude mice (Envigo, Barcelona, Spain) and subsequently passage in vivo to establish PDX PDAC1, PDAC2 and PDAC4. Primary PDX-derived in vitro cultures were established as previously detailed. […]
# Murine embryonic stem cells (mESCs) were plated at 20,000 cells per well in gelatinized 96 well plates. […] Trypsinized cells were counted and 20,000 cells were plated in wells of standard tissue culture-treated plates (Corning) and treated the following day with indicated compounds and concentrations.
# ABL1(F317L)-nonP = biological target: T1, ABL1(F317L)-nonP (Homo sapiens, UniProt P00519, F317L); assay: KINOMEscan; type: binding; conditions: read-out: % Ctrl
# T1 construct: purchased DiscoveRx KINOMEscan
# ABL1(H396P)-nonP = biological target: T2, ABL1(H396P)-nonP (Homo sapiens, UniProt P00519, H396P); assay: KINOMEscan; type: binding; conditions: read-out: % Ctrl
# T2 construct: purchased DiscoveRx KINOMEscan
# PIK3CA(M1043I) = biological target: T3, PIK3CA(M1043I) (Homo sapiens, UniProt P42336, M1043I); assay: KINOMEscan; type: binding; conditions: read-out: % Ctrl
# T3 construct: purchased DiscoveRx KINOMEscan
# ARK5 = biological target: T4, ARK5 (Homo sapiens, UniProt O60285); assay: KINOMEscan; type: binding; conditions: read-out: % Ctrl
# T4 construct: purchased DiscoveRx KINOMEscan
# HIPK1 = biological target: T5, HIPK1 (Homo sapiens, UniProt Q86Z02); assay: KINOMEscan; type: binding; conditions: read-out: % Ctrl
# T5 construct: purchased DiscoveRx KINOMEscan
# ASK1 = biological target: T6, ASK1 (Homo sapiens, UniProt Q99683); assay: KINOMEscan; type: binding; conditions: read-out: % Ctrl
# T6 construct: purchased DiscoveRx KINOMEscan
# PKN2 = biological target: T7, PKN2 (Homo sapiens, UniProt Q16513); assay: KINOMEscan; type: binding; conditions: read-out: % Ctrl
# T7 construct: purchased DiscoveRx KINOMEscan
# BMX = biological target: T8, BMX (Homo sapiens, UniProt P51813); assay: KINOMEscan; type: binding; conditions: read-out: % Ctrl
# T8 construct: purchased DiscoveRx KINOMEscan
# JAK2(JH1D.-cat.) = biological target: T9, JAK2(JH1D.-cat.) (Homo sapiens, UniProt O60674); assay: KINOMEscan; type: binding; conditions: read-out: % Ctrl
# T9 construct: JAK2(JH1D.-cat.); purchased DiscoveRx KINOMEscan
# JNK3 = biological target: T10, JNK3 (Homo sapiens, UniProt P53779); assay: KINOMEscan; type: binding; conditions: read-out: % Ctrl
# T10 construct: purchased DiscoveRx KINOMEscan
# CDC2L5 = biological target: T11, CDC2L5 (Homo sapiens, UniProt Q14004); assay: KINOMEscan; type: binding; conditions: read-out: % Ctrl
# T11 construct: purchased DiscoveRx KINOMEscan
# Description: (§1) The KINOMEscan ^TM screening platform employs an active site-directed competition binding assay to quantitatively measure interactions between test compound and 468 human kinases and disease relevant mutant variants. […] The assay was performed at DiscoveRx Corporation.
# PRP4 = biological target: T12, PRP4 (Homo sapiens, UniProt Q13523); assay: KINOMEscan; type: binding; conditions: read-out: % Ctrl
# T12 construct: purchased DiscoveRx KINOMEscan
# Description: as §1
# CAMK2A = biological target: T13, CAMK2A (Homo sapiens, UniProt Q9UQM7); assay: KINOMEscan; type: binding; conditions: read-out: % Ctrl
# T13 construct: purchased DiscoveRx KINOMEscan
# CDK7 = biological target: T14, CDK7 (Homo sapiens, UniProt P50613); assay: KINOMEscan; type: binding; conditions: read-out: % Ctrl
# T14 construct: purchased DiscoveRx KINOMEscan
# RPS6KA4(KD2-C-t.) = biological target: T15, RPS6KA4(KD2-C-t.) (Homo sapiens, UniProt O75676); assay: KINOMEscan; type: binding; conditions: read-out: % Ctrl
# T15 construct: RPS6KA4(KD2-C-t.); purchased DiscoveRx KINOMEscan
# CSNK1G3 = biological target: T16, CSNK1G3 (Homo sapiens, UniProt Q9Y6M4); assay: KINOMEscan; type: binding; conditions: read-out: % Ctrl
# T16 construct: purchased DiscoveRx KINOMEscan
# TESK1 = biological target: T17, TESK1 (Homo sapiens, UniProt Q15569); assay: KINOMEscan; type: binding; conditions: read-out: % Ctrl
# T17 construct: purchased DiscoveRx KINOMEscan
# TIE1 = biological target: T18, TIE1 (Homo sapiens, UniProt P35590); assay: KINOMEscan; type: binding; conditions: read-out: % Ctrl
# T18 construct: purchased DiscoveRx KINOMEscan
# TYK2(JH1D.-cat.) = biological target: T19, TYK2(JH1D.-cat.) (Homo sapiens, UniProt P29597); assay: KINOMEscan; type: binding; conditions: read-out: % Ctrl
# T19 construct: TYK2(JH1D.-cat.); purchased DiscoveRx KINOMEscan
# TYRO3 = biological target: T20, TYRO3 (Homo sapiens, UniProt Q06418); assay: KINOMEscan; type: binding; conditions: read-out: % Ctrl
# T20 construct: purchased DiscoveRx KINOMEscan
# EPHB3 = biological target: T21, EPHB3 (Homo sapiens, UniProt P54753); assay: KINOMEscan; type: binding; conditions: read-out: % Ctrl
# T21 construct: purchased DiscoveRx KINOMEscan
# WNK2 = biological target: T22, WNK2 (Homo sapiens, UniProt Q9Y3S1); assay: KINOMEscan; type: binding; conditions: read-out: % Ctrl
# T22 construct: purchased DiscoveRx KINOMEscan
# T19 sequence (P29597 871-1187 limits assumed): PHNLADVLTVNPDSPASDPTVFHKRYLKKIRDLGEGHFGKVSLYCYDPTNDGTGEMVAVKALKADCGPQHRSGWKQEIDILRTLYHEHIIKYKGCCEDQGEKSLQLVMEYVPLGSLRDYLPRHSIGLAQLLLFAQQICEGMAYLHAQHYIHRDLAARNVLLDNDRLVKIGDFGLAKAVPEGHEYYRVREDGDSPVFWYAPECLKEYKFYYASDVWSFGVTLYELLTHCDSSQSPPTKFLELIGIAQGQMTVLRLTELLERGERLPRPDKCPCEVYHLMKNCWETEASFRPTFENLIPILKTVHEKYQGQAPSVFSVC
# T11 sequence (Q14004 whole entry): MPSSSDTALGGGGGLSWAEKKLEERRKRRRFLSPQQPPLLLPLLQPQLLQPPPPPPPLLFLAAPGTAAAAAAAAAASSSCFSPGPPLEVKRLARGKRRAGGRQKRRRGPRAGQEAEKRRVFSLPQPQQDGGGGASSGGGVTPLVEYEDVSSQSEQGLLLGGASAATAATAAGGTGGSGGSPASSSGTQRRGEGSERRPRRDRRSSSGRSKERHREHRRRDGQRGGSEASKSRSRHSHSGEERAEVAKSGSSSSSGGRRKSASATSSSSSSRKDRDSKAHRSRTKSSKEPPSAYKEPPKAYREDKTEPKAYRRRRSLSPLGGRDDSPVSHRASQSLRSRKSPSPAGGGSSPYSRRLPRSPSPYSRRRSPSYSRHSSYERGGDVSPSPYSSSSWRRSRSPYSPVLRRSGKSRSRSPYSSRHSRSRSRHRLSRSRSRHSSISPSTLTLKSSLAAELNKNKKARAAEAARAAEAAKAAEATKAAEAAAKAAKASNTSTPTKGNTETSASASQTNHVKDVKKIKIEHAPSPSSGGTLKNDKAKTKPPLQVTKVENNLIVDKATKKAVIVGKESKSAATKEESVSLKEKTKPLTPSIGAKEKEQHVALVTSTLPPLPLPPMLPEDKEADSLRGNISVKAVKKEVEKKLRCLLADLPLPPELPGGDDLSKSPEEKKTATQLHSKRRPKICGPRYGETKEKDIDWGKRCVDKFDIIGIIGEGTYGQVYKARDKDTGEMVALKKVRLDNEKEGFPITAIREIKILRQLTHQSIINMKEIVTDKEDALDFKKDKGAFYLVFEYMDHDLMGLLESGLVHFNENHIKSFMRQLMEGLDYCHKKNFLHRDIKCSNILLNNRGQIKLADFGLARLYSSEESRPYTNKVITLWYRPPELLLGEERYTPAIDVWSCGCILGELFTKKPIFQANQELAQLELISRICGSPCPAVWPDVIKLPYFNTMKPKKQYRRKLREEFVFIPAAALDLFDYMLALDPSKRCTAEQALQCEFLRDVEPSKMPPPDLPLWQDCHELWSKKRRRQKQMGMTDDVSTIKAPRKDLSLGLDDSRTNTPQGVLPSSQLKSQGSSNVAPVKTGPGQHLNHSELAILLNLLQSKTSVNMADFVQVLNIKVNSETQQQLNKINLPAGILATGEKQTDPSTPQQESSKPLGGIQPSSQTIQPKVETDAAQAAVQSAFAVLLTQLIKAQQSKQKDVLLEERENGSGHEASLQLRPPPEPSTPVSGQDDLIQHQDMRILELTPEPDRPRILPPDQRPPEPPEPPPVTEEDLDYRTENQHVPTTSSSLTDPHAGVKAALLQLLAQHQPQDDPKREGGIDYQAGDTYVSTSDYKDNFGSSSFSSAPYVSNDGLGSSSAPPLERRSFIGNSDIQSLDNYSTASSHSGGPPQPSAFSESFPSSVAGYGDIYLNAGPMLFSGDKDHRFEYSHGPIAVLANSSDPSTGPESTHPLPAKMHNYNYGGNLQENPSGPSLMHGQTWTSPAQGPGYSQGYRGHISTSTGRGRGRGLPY
# T16 sequence (Q9Y6M4 whole entry): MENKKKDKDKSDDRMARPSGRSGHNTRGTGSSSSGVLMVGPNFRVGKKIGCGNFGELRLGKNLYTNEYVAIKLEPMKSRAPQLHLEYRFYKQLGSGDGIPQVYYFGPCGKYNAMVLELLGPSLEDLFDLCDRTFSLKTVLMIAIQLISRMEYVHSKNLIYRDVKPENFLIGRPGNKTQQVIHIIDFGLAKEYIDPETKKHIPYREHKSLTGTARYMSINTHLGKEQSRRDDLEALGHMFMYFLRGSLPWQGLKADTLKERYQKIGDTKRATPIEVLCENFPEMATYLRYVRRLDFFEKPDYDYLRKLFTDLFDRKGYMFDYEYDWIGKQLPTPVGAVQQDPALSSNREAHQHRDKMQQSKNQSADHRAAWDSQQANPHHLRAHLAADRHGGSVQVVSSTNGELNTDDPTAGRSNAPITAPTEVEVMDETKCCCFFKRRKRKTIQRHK
# T21 sequence (P54753 34-998): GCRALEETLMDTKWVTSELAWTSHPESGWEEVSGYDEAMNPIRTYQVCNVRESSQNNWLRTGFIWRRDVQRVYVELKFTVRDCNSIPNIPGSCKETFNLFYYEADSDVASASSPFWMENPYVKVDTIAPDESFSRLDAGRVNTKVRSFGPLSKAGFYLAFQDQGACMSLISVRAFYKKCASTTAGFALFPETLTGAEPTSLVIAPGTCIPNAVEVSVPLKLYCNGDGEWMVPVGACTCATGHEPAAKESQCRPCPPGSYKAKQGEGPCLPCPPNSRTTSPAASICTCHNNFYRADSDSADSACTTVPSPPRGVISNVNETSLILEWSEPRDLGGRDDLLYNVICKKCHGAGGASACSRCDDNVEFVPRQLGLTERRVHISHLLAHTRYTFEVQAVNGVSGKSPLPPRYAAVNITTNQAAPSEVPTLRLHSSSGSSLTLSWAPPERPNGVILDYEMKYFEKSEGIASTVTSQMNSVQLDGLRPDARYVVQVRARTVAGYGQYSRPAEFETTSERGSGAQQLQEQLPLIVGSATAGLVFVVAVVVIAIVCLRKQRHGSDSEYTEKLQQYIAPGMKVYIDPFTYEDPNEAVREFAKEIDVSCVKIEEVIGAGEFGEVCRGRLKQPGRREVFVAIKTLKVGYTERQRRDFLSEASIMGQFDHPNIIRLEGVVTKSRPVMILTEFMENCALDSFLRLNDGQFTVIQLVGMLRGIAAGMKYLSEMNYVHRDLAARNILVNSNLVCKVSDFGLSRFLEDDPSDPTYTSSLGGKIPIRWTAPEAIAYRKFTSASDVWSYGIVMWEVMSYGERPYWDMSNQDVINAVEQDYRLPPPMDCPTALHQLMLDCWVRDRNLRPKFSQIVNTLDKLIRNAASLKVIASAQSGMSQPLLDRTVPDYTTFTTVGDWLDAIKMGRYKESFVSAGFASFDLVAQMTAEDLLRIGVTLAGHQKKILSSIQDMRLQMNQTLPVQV
# T5 sequence (Q86Z02 whole entry): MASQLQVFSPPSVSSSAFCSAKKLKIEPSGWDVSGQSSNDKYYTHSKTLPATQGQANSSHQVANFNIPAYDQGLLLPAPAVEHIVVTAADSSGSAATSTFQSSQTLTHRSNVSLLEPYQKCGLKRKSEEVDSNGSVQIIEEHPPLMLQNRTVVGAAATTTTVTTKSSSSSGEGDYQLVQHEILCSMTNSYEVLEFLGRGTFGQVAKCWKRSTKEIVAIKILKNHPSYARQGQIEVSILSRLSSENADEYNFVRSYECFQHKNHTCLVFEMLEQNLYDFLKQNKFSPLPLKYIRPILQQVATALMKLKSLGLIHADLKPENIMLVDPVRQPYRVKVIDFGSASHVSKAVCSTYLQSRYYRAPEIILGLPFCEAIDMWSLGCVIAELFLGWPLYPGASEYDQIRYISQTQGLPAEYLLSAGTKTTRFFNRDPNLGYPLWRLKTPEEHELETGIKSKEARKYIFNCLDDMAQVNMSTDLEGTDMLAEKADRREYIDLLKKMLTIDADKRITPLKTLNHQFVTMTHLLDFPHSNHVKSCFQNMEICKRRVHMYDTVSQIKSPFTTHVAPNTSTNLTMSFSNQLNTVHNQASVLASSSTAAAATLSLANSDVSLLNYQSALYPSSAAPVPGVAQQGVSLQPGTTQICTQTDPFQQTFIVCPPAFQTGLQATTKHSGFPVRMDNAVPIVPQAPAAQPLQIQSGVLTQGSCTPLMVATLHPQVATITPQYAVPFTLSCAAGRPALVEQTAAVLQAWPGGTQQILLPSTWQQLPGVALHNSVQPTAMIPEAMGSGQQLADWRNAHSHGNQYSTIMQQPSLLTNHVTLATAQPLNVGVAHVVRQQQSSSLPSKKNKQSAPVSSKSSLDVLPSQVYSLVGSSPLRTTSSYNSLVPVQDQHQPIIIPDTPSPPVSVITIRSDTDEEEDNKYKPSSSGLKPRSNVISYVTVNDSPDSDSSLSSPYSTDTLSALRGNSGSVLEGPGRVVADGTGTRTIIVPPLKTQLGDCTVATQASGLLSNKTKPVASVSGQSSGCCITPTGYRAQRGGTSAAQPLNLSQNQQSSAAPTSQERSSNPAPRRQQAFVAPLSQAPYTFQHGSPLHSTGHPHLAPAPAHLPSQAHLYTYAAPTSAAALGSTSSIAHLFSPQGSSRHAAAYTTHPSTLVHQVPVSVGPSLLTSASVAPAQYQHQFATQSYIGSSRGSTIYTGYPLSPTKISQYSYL
# T9 sequence (O60674 849-1132 limits assumed): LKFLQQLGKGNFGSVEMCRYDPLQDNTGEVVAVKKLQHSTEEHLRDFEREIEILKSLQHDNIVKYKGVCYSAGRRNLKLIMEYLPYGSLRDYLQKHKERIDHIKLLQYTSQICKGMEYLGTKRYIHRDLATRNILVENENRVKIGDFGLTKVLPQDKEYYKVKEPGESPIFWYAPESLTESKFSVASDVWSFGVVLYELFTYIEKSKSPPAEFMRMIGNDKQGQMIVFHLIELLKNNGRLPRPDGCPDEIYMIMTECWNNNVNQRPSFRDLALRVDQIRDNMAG
smiles,measurement,setting,value
COc1nc2ccc(NCC3CCN(C)CC3)nn2c1C(=O)Nc1cccc(OC(F)(F)F)c1 [Cpd 1],EC50,[1],~3.56 µM
CN1CCC(CNc2ccc3ncc(C(=O)Nc4cccc(OC(F)(F)F)c4)n3n2)CC1 [Cpd 2],remaining binding at 1 µM,ABL1(F317L)-nonP,66%
same,remaining binding at 1 µM,ABL1(H396P)-nonP,93%
same,remaining binding at 1 µM,PIK3CA(M1043I),90%
same,remaining binding at 1 µM,ARK5,88%
same,remaining binding at 1 µM,HIPK1,100%
same,remaining binding at 1 µM,ASK1,100%
same,remaining binding at 1 µM,PKN2,79%
same,remaining binding at 1 µM,BMX,100%
same,remaining binding at 1 µM,JAK2(JH1D.-cat.),96%
same,remaining binding at 1 µM,JNK3,100%
same,remaining binding at 1 µM,CDC2L5,100%
same,remaining binding at 1 µM,PRP4,100%
same,remaining binding at 1 µM,CAMK2A,82%
same,remaining binding at 1 µM,CDK7,70%
same,remaining binding at 1 µM,RPS6KA4(KD2-C-t.),100%
same,remaining binding at 1 µM,CSNK1G3,100%
same,remaining binding at 1 µM,TESK1,90%
same,remaining binding at 1 µM,TIE1,90%
same,remaining binding at 1 µM,TYK2(JH1D.-cat.),65%
same,remaining binding at 1 µM,TYRO3,89%
same,remaining binding at 1 µM,EPHB3,86%
same,remaining binding at 1 µM,WNK2,77%
